One experiment concerns mdx mice. The experiment in a line: Functional repair following limb muscle injury in mdx mice (FIG. 2). The experiment is classed as in vivo.
A further experiment relates to male C57BL/mdx mice. The experiment in a line: In vivo functional response to eccentric contraction-induced muscle damage in mdx mice (Duchenne Muscular Dystrophy model). The arrangement: species or system mouse. The note with it: 30 mg/kg BID; 8 month-old male C57BL/mdx mice; FIG. 2. From the text: (§1) Under anesthesia, the right hind limb of a mouse is restrained at the knee and the foot attached to a motorized footplate/force transducer. Needle electrodes are inserted into the upper limb, either side of the sciatic nerve and a current sufficient to elicit a maximal muscle contraction is applied. Muscle tension is produced by moving the footplate to lengthen the plantarflexor muscles while the limb is under maximal stimulation. This is repeated 60 times to fatigue the muscles of the lower limb. Anesthesia, limb immobilization and limb stimulation are then repeated at regular intervals to measure maximal isometric force in the recovering limb. 7 to 9 animals are tested for each test condition.
The force deficit and recovery kinetics following eccentric contraction-induced muscle damage was also evaluated in middle-aged (8 month-old) male C57BL/mdx mice, a preclinical model of Duchenne Muscular Dystrophy. In this dystrophin-null background, the protocol elicited a greater functional deficit (˜75%) and a protracted recovery interval, as shown in the eccentric vehicle controls.

Experiment [1] deals with T1, haematopoietic prostaglandin D synthase (H-PGDS) (Homo sapiens, UniProt O60760).
T1 construct: Full length human H-PGDS cDNA (Invitrogen Ultimate ORF IOH13026) was amplified by PCR; made in house; host or cells: E. coli BL21 (DE3*), vector pET22b+
The experiment can be described thus: H-PGDS RapidFire High Throughput Mass Spectrometry Assay. In kind it is biochemical. An outline of the steps:
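PGH2 (~10 μM burst) generated in situ from arachidonic acid by FLAG-tagged human COX-2 (Sf9-expressed), then converted to PGD2 by full-length human His-tagged H-PGDS from E. coli. PGD2 and PGF2α (substrate surrogate) quantified by RapidFire SPE-triple quadrupole MS; percent conversion calculated.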

The next experiment deals with male C57Bl/6N mice. The experiment can be described thus: In vivo functional response to muscle injury (eccentric contraction-induced muscle fatigue). Further details: species or system mouse. The note with it: FIG. 1.
Excerpt: as §1

The mark [2] stands for this setting: H-PGDS RapidFire MS assay, mean pIC50, read-out: Potency Range (mean pIC50) (converted).
Setting [3] is: in at least one experimental run, read-out: H-PGDS pIC50 value (converted).

Structures can show the parent of a compound that is named as a salt. Where two headings read alike, the source gives them in different places.

T1 sequence (O60760 whole entry): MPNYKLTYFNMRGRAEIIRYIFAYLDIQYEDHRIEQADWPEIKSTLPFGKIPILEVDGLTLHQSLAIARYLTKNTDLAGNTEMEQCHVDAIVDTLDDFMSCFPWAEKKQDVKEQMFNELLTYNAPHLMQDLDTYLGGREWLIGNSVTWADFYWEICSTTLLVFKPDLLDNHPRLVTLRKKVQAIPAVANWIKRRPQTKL

On to `O=C(N[C@H]1CCNC1=O)c1cnc2cc(OC(F)F)c(F)cc2c1` [Example 48, (S)-7-(Difluoromethoxy)-6-fluoro-N-(2-oxopyrrolidin-3-yl)quinoline-3-carboxamide], for which the “protection and acceleration of functional repair dose response curves of PGDS Inhibition” value in the experiment on mdx mice is “protection and acceleration of functional repair”. For the same compound, in the experiment with male C57BL/mdx mice, the “force deficit at 24-hours” value was “significantly blunted the force deficit at 24-hours”; the “rate and extent of functional recovery” value is “improved both the rate and extent of functional recovery”. In addition, in experiment [1] (setting [2]), the IC50 is 10 to 79.4 nM.

As to `O=C(NC1CCN(c2ccccn2)CC1)c1cnc2cc(OC(F)F)c(F)cc2c1` [Example 95, 7-(Difluoromethoxy)-6-fluoro-N-(1-(pyridin-2-yl)piperidin-4-yl)quinoline-3-carboxamide], the IC50 in experiment [1] (setting [2]) is less than 10 nM.

As to `Cc1ccc2cc(C(=O)N[C@H]3CC[C@H](C(C)(C)O)CC3)cnc2c1` [Example 186, N-(trans-4-(2-Hydroxypropan-2-yl)cyclohexyl)-7-methylquinoline-3-carboxamide], the IC50 in experiment [1] (setting [2]) is 100 to 1000 nM.

Take `O=C(N[C@H]1CCNC1=O)c1cnc2cc(N3CCC3)c(Cl)cc2c1` [Example 166, (S)-7-(Azetidin-1-yl)-6-chloro-N-(2-oxopyrrolidin-3-yl)quinoline-3-carboxamide trifluoroacetic Acid Salt]: the IC50 in experiment [1] (setting [2]) was less than 10 nM.

As for `Cn1nnnc1N1CCC(NC(=O)c2cnc3cc(Br)ccc3c2)CC1` [Example 108, 7-Bromo-N-(1-(1-methyl-1H-tetrazol-5-yl)piperidin-4-yl)quinoline-3-carboxamide], in experiment [1] (setting [2]), the IC50 is 10 to 79.4 nM.

For `O=C(NC1CCCOC1)c1cnc2cc(OC(F)F)c(Cl)cc2c1` (stereo not drawn) [Example 149, 6-Chloro-7-(difluoromethoxy)-N-(tetrahydro-2H-pyran-3-yl)quinoline-3-carboxamide], the IC50 in experiment [1] (setting [2]) is 10 to 79.4 nM.

Consider `CC(C)C(O)CO[C@H]1CC[C@H](NC(=O)c2cnc3cc(OC(F)F)c(F)cc3c2)CC1` (stereo partly drawn) [Example 79, 7-(Difluoromethoxy)-6-fluoro-N-(trans-4-(2-hydroxy-3-methylbutoxy)cyclohexyl)quinoline-3-carboxamide], for which, in experiment [1] (setting [2]), the IC50 is 10 to 79.4 nM.

For the compound `CN1CCN(C(=O)[C@H]2CC[C@H](NC(=O)c3cnc4cc(OC(F)F)c(Cl)cc4c3)CC2)CC1` [Example 211, 6-Chloro-7-(difluoromethoxy)-N-((trans)-4-(4-methylpiperazine-1-carbonyl)cyclohexyl)quinoline-3-carboxamide], the IC50 in experiment [1] (setting [2]) is 10 to 79.4 nM.

In the case of `COC(=O)[C@H]1CC[C@H](NC(=O)c2cnc3cc(OC(F)F)c(F)cc3c2)CC1` [Example 86, trans-Methyl 4-(7-(difluoromethoxy)-6-fluoroquinoline-3-carboxamido)cyclohexanecarboxylate], the IC50 in experiment [1] (setting [2]) is less than 10 nM.

As to `O=C(N[C@H]1CC[C@H](N2CC(F)(F)C2)CC1)c1cnc2cc(OC(F)F)c(F)cc2c1` [Example 71, N-(trans-4-(3,3-Difluoroazetidin-1-yl)cyclohexyl)-7-(difluoromethoxy)-6-fluoroquinoline-3-carboxamide], the IC50 in experiment [1] (setting [2]) was 10 to 79.4 nM.

With `C[C@]1(O)C[C@H](NC(=O)c2cnc3cc(OC(F)F)c(Cl)cc3c2)C1` [Example 137, 6-Chloro-7-(difluoromethoxy)-N-((1r,3r)-3-hydroxy-3-methylcyclobutyl)quinoline-3-carboxamide], in experiment [1] (setting [2]), the IC50 was 10 to 79.4 nM.

On to `CSc1cc2ncc(C(=O)N[C@H]3CC[C@H](C(C)(C)O)CC3)cc2cc1F` [Example 161, 6-Fluoro-N-(trans-4-(2-hydroxypropan-2-yl)cyclohexyl)-7-(methylthio)quinoline-3-carboxamide], for which the IC50 in experiment [1] (setting [2]) is less than 10 nM.

As for `C[C@H](N[C@H]1CC[C@H](NC(=O)c2cnc3cc(OC(F)F)c(F)cc3c2)CC1)C(F)(F)F` [Example 63, 7-(Difluoromethoxy)-6-fluoro-N-(trans-4-(((S)-1,1,1-trifluoropropan-2-yl)amino)cyclohexyl)quinoline-3-carboxamide], the IC50 in experiment [1] (setting [2]) was less than 10 nM.

Turning to `CCc1ccc2cc(C(=O)NC3CCN(c4nnnn4C)CC3)cnc2c1` [Example 110, 7-Ethyl-N-(1-(1-methyl-1H-tetrazol-5-yl)piperidin-4-yl)quinoline-3-carboxamide], the IC50 in experiment [1] (setting [2]) was 10 to 79.4 nM.

As to `C[C@@H](N[C@H]1CC[C@H](NC(=O)c2cnc3cc(OC(F)F)c(Cl)cc3c2)CC1)C(F)F` [Example 129, 6-Chloro-7-(difluoromethoxy)-N-(trans-4-(((R)-1,1-difluoropropan-2-yl)amino)cyclohexyl)quinoline-3-carboxamide], the IC50 in experiment [1] (setting [2]) was less than 10 nM.

Regarding `CC(C)(O)CO[C@H]1CC[C@H](NC(=O)c2cnc3cc(OC(F)F)c(Cl)cc3c2)CC1` [Example 122, 6-Chloro-7-(difluoromethoxy)-N-(trans-4-(2-hydroxy-2-methylpropoxy)cyclohexyl)quinoline-3-carboxamide], the IC50 in experiment [1] (setting [2]) was less than 10 nM.

For the compound `CC(C)(O)[C@H]1C[C@H](NC(=O)c2cnc3cc(OC(F)F)c(Cl)cc3c2)C1` [Example 118, 6-Chloro-7-(difluoromethoxy)-N-(trans-3-(2-hydroxypropan-2-yl)cyclobutyl)quinoline-3-carboxamide], the IC50 is less than 10 nM in experiment [1] (setting [2]) and 10 nM in experiment [1] (setting [3]).

`C[C@]1(O)C[C@@H](NC(=O)c2cnc3cc(C4CC4)c(Cl)cc3c2)C1` [Example 40, 6-Chloro-7-cyclopropyl-N-((1s,3s)-3-hydroxy-3-methylcyclobutyl)quinoline-3-carboxamide]: the IC50 in experiment [1] (setting [2]) is 10 to 79.4 nM.

For `C[C@]1(O)C[C@@H](NC(=O)c2cnc3cc(OC(F)F)c(Cl)cc3c2)C1` [Example 138, 6-Chloro-7-(difluoromethoxy)-N-((1s,3s)-3-hydroxy-3-methylcyclobutyl)quinoline-3-carboxamide], the IC50 in experiment [1] (setting [2]) was 10 to 79.4 nM; in experiment [1] (setting [3]), 20 nM.

For the compound `CC(C)(O)[C@H]1CC[C@H](NC(=O)c2cnc3cc(NC4CC4)c(Cl)cc3c2)CC1` [Example 213, 6-Chloro-7-(cyclopropylamino)-N-((trans)-4-(2-hydroxypropan-2-yl)cyclohexyl)quinoline-3-carboxamide], the IC50 in experiment [1] (setting [2]) is less than 10 nM.

For the compound `CC(C)(O)[C@H]1CC[C@H](NC(=O)c2cnc3cc(OC(F)F)ccc3c2)CC1` [Example 6, 7-(Difluoromethoxy)-N-((trans)-4-(2-hydroxypropan-2-yl)cyclohexyl)quinoline-3-carboxamide], the “kinetics of recovery of maximal isometric force” value in the experiment with male C57Bl/6N mice (PO 1, 3 and 10 mg/kg BID beginning 10 min prior to eccentric contraction challenge) is recorded as “acceleration in the kinetics of recovery”. Further, in the experiment with male C57Bl/6N mice (PO 3 and 10 mg/kg BID), the “initial magnitude of the injury (isometric limb force 24-hours following protocol initiation)” value is “reduced the initial magnitude of the injury”.

Regarding `O=C(N[C@H]1C[C@](O)(C(F)(F)F)C1)c1cnc2cc(OC(F)F)c(Cl)cc2c1` [Example 232, 6-Chloro-7-(difluoromethoxy)-N-((1s,3s)-3-hydroxy-3-(trifluoromethyl)cyclobutyl)quinoline-3-carboxamide], the IC50 in experiment [1] (setting [2]) is less than 10 nM.

As to `O=C(N[C@H]1CCNC1=O)c1cnc2cc(C3CC3)c(Cl)cc2c1` [Example 35, (S)-6-Chloro-7-cyclopropyl-N-(2-oxopyrrolidin-3-yl)quinoline-3-carboxamide hydrochloride], the IC50 in experiment [1] (setting [2]) is less than 10 nM.

Take `C[C@H]1CCN1c1cc2ncc(C(=O)N[C@H]3CCNC3=O)cc2cc1F` [Example 176, 6-Fluoro-7-((S)-2-methylazetidin-1-yl)-N—((S)-2-oxopyrrolidin-3-yl)quinoline-3-carboxamide]: in experiment [1] (setting [2]), the IC50 was 10 to 79.4 nM.

`CC(C)(O)[C@H]1CC[C@H](NC(=O)c2cnc3cc(OC(F)F)c(Cl)cc3c2)CC1` [Example 116, (6-Chloro-7-(difluoromethoxy)-N-(trans-4-(2-hydroxypropan-2-yl)cyclohexyl)quinoline-3-carboxamide, trifluoroacetate]: the IC50 is less than 10 nM in experiment [1] (setting [2]) and 2.51 nM in experiment [1] (setting [3]).

As for `O=C(N[C@H]1CC[C@H](C(O)C2CC2)CC1)c1cnc2cc(OC(F)F)ccc2c1` (stereo partly drawn) [Example 14, N-(trans-4-(-Cyclopropyl(hydroxy)methyl)cyclohexyl)-7-(difluoromethoxy)quinoline-3-carboxamide], the IC50 in experiment [1] (setting [2]) is less than 10 nM.

As to `CC(C)(O)[C@H]1CC[C@H](NC(=O)c2cnc3cc(SC(F)F)c(F)cc3c2)CC1` [Example 184, 7-((Difluoromethyl)thio)-6-fluoro-N-(trans-4-(2-hydroxypropan-2-yl)cyclohexyl)quinoline-3-carboxamide], the IC50 in experiment [1] (setting [2]) was 10 to 79.4 nM.

As for `O=C(N[C@H]1C[C@H](O)C1)c1cnc2cc(OC(F)F)c(Cl)cc2c1` [Example 140, 6-Chloro-7-(difluoromethoxy)-N-(trans-3-hydroxycyclobutyl)quinoline-3-carboxamide], in experiment [1] (setting [2]), the IC50 was 10 to 79.4 nM.

As for `O=C(Nc1nccs1)c1cnc2cc(OC(F)F)ccc2c1` [Example 10, 7-(Difluoromethoxy)-N-(thiazol-2-yl)quinoline-3-carboxamide], the IC50 in experiment [1] (setting [2]) was 10 to 79.4 nM.

Source of the values: patent US20210238162A1, “CHEMICAL COMPOUNDS” (GlaxoSmithKline Intellectual Property Development Limited, priority 2015, published 2021).
